Results as given in patent US20030186817A1, “SUBSTITUTED 2,4-DIAMINO-1,3,5-TRIAZINES, PROCESSES FOR THEIR PREPARATION AND THEIR USE AS HERBICIDES AND PLANT GROWTH REGULATORS” (priority 1998, published 2003).

Assays:
Format in all cases: in vivo
[1] = system: Stellaria media, Amaranthus retroflexus, Sinapis avreuse, Avena fatura, Lolium multiflorum and Setaria viridis; assay: Pre-emergence action against weeds (greenhouse pot test, visual rating); settings: application rate of 3.0 kg or less of active substance per hectare, trial period of 3 to 4 weeks
Description: Seeds of mono- and dicotyledonous weed plants are placed in sandy loam soil in cardboard pots and covered with soil. The novel compounds, formulated as wettable powders or emulsion concentrates, are then applied to the surface of the soil cover in the form of an aqueous suspension or emulsion at an application rate of from 600 to 800 l of water/ha (converted), in various dosages. After the treatment, the pots are placed in a greenhouse and kept under good growth conditions for the weeds. After the test plants have emerged after a trial period of 3 to 4 weeks, the damage to the plants or the negative effect on emergence is rated visually by comparison with untreated controls. As shown by the test results, the novel compounds have good herbicidal pre-emergence activity against a broad spectrum of weed grasses and broad-leaved weeds.

[2] = system: Stellaria media, Amaranthus retroflexus, Sinapis avreuse, Avena fatura, Lolium multiflorum and Setaria viridis; assay: Post-emergence action against weeds (greenhouse pot test, visual rating); settings: three-leaf stage, application rate of 3.0 kg or less of active substance per hectare, 3 to 4 weeks in greenhouse
Experimental: Seeds of mono- and dicotyledonous weeds are placed in sandy loam soil in cardboard pots, covered with soil and cultivated in a greenhouse under good growth conditions. Two to three weeks after sowing, the test plants are treated at the three-leaf stage. The novel compounds, formulated as wettable powders or emulsion concentrates, are sprayed in various dosages onto the green parts of the plant at an application rate of from 600 to 8001 of water/ha (converted), and, after the test plants have remained in the greenhouse for 3 to 4 weeks under optimum growth conditions, the action of the preparations is rated visually by comparison with untreated controls. The novel compositions also have good post-emergence herbicidal activity against a broad spectrum of economically important weed grasses and broad-leaved weeds.

[3] = system: Cyperus iria and Echinocloa crus-galli; assay: Action on weeds in rice (paddy rice conditions, visual rating); settings: dammed height of water 2-3 cm, about three weeks after application; also: test concentration or dose not given here
Description: Typical rice weeds such as Echinocloa crus galli and Cyperus iria are cultivated in a greenhouse under paddy rice conditions ([…] height of water: 2-3 cm). After the treatment, the test plants are set up in a greenhouse under optimum growth conditions and are maintained in this way under these conditions throughout the test period. About three weeks after application, evaluation is made by visual rating of the damage to the plants by comparison with untreated controls.

Row | Structure (SMILES) | herbicidal activity pre-emergence (damage to the plants or negative effect on emergence, rated visually) [1] | herbicidal activity post-emergence (rated visually) [2] | herbicidal activity against rice weeds (visual rating of damage) [3]
1 | Cc1ccccc1C(=O)OCC(C)Nc1nc(N)nc(C(C)C)n1 (stereo not shown) [Example 41] | good and in most cases very good herbicidal activity | good and in most cases very good herbicidal activity | very good herbicidal activity
2 | CCC(COC(=O)c1ccccc1C)Nc1nc(N)nc(C(C)C)n1 (stereo not shown) [Example 42] | good and in most cases very good herbicidal activity | good and in most cases very good herbicidal activity | very good herbicidal activity
3 | CCC(COC(=O)c1ccccc1OC(C)=O)Nc1nc(N)nc(C(C)C)n1 (stereo not shown) [Example 46] |  | good and in most cases very good herbicidal activity | very good herbicidal activity
4 | Cc1cccc(COCC(C)Nc2nc(N)nc(C(C)(C)F)n2)c1 (stereo not shown) [Example 120] | good and in most cases very good herbicidal activity |  | very good herbicidal activity
5 | Cc1ccc(COCC(C)Nc2nc(N)nc(C(C)(C)F)n2)cc1 (stereo not shown) [Example 183] | good and in most cases very good herbicidal activity | good and in most cases very good herbicidal activity | very good herbicidal activity
6 | CC(COCc1ccccc1)Nc1nc(N)nc(C(C)(C)F)n1 (stereo not shown) [Example 201] | good and in most cases very good herbicidal activity | good and in most cases very good herbicidal activity | very good herbicidal activity
7 | CC(CCOc1cc(F)cc(F)c1)Nc1nc(N)nc(C(C)(C)F)n1 (stereo not shown) [Example 207] | good and in most cases very good herbicidal activity | good and in most cases very good herbicidal activity | very good herbicidal activity
8 | COc1cccc(OCCC(C)Nc2nc(N)nc(C(C)C)n2)c1 (stereo not shown) [Example 213] | good and in most cases very good herbicidal activity | good and in most cases very good herbicidal activity | very good herbicidal activity
9 | CCC(CCOc1cccc(Cl)c1)Nc1nc(N)nc(C(C)F)n1 (stereo not shown) [Example 220] | good and in most cases very good herbicidal activity | good and in most cases very good herbicidal activity | very good herbicidal activity
10 | CCC(CCOc1cccc(F)c1)Nc1nc(N)nc(C(C)(C)F)n1 (stereo not shown) [Example 222] | good and in most cases very good herbicidal activity | good and in most cases very good herbicidal activity | very good herbicidal activity
11 | CCC(CCOc1cccc(OC)c1)Nc1nc(N)nc(C(F)(F)C(F)F)n1 (stereo not shown) [Example 228] | good and in most cases very good herbicidal activity | good and in most cases very good herbicidal activity | very good herbicidal activity
12 | CC(CCOc1cccc(F)c1)Nc1nc(N)nc(C(C)C)n1 (stereo not shown) [Example 300] | good and in most cases very good herbicidal activity |  | very good herbicidal activity
13 | CCC(CCOc1ccccc1)Nc1nc(N)nc(C(F)(F)C(F)F)n1 (stereo not shown) [Example 394] | good and in most cases very good herbicidal activity |  | very good herbicidal activity
14 | CC(F)c1nc(N)nc(NCC(=O)NCc2ccccc2)n1 (stereo not shown) [Example 930] | good and in most cases very good herbicidal activity | good and in most cases very good herbicidal activity | 
15 | CC(C)c1nc(N)nc(NCC(=O)NCc2ccccc2)n1 [Example 987] | good and in most cases very good herbicidal activity | good and in most cases very good herbicidal activity | 
16 | Cc1cccc(CNC(=O)C(C)Nc2nc(N)nc(C(C)C)n2)c1 (stereo not shown) [Example 1005] | good and in most cases very good herbicidal activity | good and in most cases very good herbicidal activity | 
17 | Cc1cc(C)cc(CON=CCNc2nc(N)nc(C(C)F)n2)c1 (stereo not shown) [Example 1234] | good and in most cases very good herbicidal activity | good and in most cases very good herbicidal activity | 
18 | CCc1nc(N)nc(NCC=NOCc2cc(C)cc(C)c2)n1 [Example 1235] | good and in most cases very good herbicidal activity | good and in most cases very good herbicidal activity | 
19 | Cc1cc(C)cc(CON=CCNc2nc(N)nc(C(C)(C)F)n2)c1 [Example 1236] | good and in most cases very good herbicidal activity | good and in most cases very good herbicidal activity | 
20 | Cc1cc(C)cc(CON=CCNc2nc(N)nc(C(C)C)n2)c1 [Example 1251] | good and in most cases very good herbicidal activity | good and in most cases very good herbicidal activity | 
21 | CC(C)(F)c1nc(N)nc(NCC=NOCc2ccccc2)n1 [Example 1252] | good and in most cases very good herbicidal activity | good and in most cases very good herbicidal activity | 
22 | CC(C)c1nc(N)nc(NCC=NOCc2ccccc2)n1 [Example 1253] | good and in most cases very good herbicidal activity | good and in most cases very good herbicidal activity | 
23 | CC(F)c1nc(N)nc(NCC=NOCc2ccccc2)n1 (stereo not shown) [Example 1307] | good and in most cases very good herbicidal activity | good and in most cases very good herbicidal activity | 
24 | CCC(COCCOc1ccccc1)Nc1nc(N)nc(C(C)(C)F)n1 (stereo not shown) [Example 1344] | good and in most cases very good herbicidal activity | good and in most cases very good herbicidal activity | 
25 | CCC(COCCOc1ccccc1)Nc1nc(N)nc(C(C)C)n1 (stereo not shown) [Example 1345] | good and in most cases very good herbicidal activity | good and in most cases very good herbicidal activity | 
26 | CCC(COCCOc1ccccc1)Nc1nc(N)nc(C(C)F)n1 (stereo not shown) [Example 1346] | good and in most cases very good herbicidal activity | good and in most cases very good herbicidal activity | 
27 | CCC(COCCOc1cccc(Cl)c1)Nc1nc(N)nc(C(C)(C)F)n1 (stereo not shown) [Example 1364] | good and in most cases very good herbicidal activity | good and in most cases very good herbicidal activity | 
28 | CC(COCCOc1ccccc1)Nc1nc(N)nc(C(C)(C)F)n1 (stereo not shown) [Example 1385] | good and in most cases very good herbicidal activity | good and in most cases very good herbicidal activity | 
29 | CCCc1nc(N)nc(NC(C)COCCOc2ccccc2)n1 (stereo not shown) [Example 1404] | good and in most cases very good herbicidal activity | good and in most cases very good herbicidal activity | 
